Laboratory results published in patent US20030134859A1 (SANKYO COMPANY, LIMITED, priority 2000, published 2003).

System: Mouse preadipocyte strain 3T3-L1
Experiment: Inhibition of differentiation as an indication of acetic acid uptake
Type: cell-based
Conditions: 0.1 μM test substance, control (0.01% dimethylsulfoxide) = 100%
Procedure, shortened: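 Confluent 3T3-L1 cells induced to differentiate for 4 days (insulin, IBMX, dexamethasone, 5% FBS) with test compound at 0.1 μM final or 0.01% DMSO, then 2 days in insulin maintenance medium, at 37 °C, 10% CO2. [2-14C]acetic acid uptake over 1 hr counted by scintillation; expressed as % of DMSO control.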

Row | Structure (SMILES) | Rate of Uptake (%) of [2-14C] acetic acid [%]
1 | O=C(Nc1ccc(-c2ccccn2)cc1)c1cc([N+](=O)[O-])ccc1Cl [Example 8, N-[4-(2-Pyridyl)phenyl]-(2-chloro-5-nitrophenyl)carboxamide] | 47.2

Same assay, conditions: Mus musculus, 3T3-L1, 0.1 μM test substance, control (0.01% dimethylsulfoxide) = 100%, read-out: Rate of Uptake (%) of [2-14C] acetic acid

Row | Structure (SMILES) | activity at 0.1 µM [%]
2 | Cc1ccc(NC(=O)c2cc([N+](=O)[O-])ccc2Cl)cc1 [Example 1, N-(4-Methylphenyl)-(2-chloro-5-nitrophenyl)carboxamide] | 64
3 | O=C(Nc1ccc(-c2ccccc2)cc1)c1cc([N+](=O)[O-])ccc1Cl [Example 2, N-(4-Phenylphenyl)-(2-chloro-5-nitrophenyl)carboxamide] | 42.7
4 | Cc1cnc(NC(=O)c2cc([N+](=O)[O-])ccc2Cl)s1 [Example 4, N-(5-Methylthiazol-2-yl)-(2-chloro-5-nitrophenyl)carboxamide] | 92.5
5 | O=C(Nc1cccc(-c2ccccc2)c1)c1cc([N+](=O)[O-])ccc1Cl [Example 5, N-(3-Phenylphenyl)-(2-chloro-5-nitrophenyl)carboxamide] | 43.4
6 | COc1ccc(NC(=O)c2cc([N+](=O)[O-])ccc2Cl)cc1-c1ccccc1 [Example 6, N-(4-Methoxy-3-phenyl)phenyl-(2-chloro-5-nitrophenyl)carboxamide] | 55.8
7 | O=C(Nc1ccccc1-c1ccccc1)c1cc([N+](=O)[O-])ccc1Cl [Example 7, N-(2-Phenylphenyl)-(2-chloro-5-nitrophenyl)carboxamide] | 65
8 | Cc1ccc2nc(-c3ccc(NC(=O)c4cc([N+](=O)[O-])ccc4Cl)cc3)sc2c1 [Example 10, N-[4-(6-Methylbenzothiazol-2-yl)phenyl]-(2-chloro-5-nitrophenyl)carboxamide] | 85.3
9 | CCCCCc1ccc(NC(=O)c2cc([N+](=O)[O-])ccc2Cl)cc1 [Example 16, N-(4-Pentylphenyl)-(2-chloro-5-nitrophenyl)carboxamide] | 83.7
10 | N#Cc1ccc(NC(=O)c2cc([N+](=O)[O-])ccc2Cl)cc1 [Example 20, N-(4-Cyanophenyl)-(2-chloro-5-nitrophenyl)carboxamide] | 65.9
11 | CCOC(=O)c1ccc(NC(=O)c2cc([N+](=O)[O-])ccc2Cl)cc1 [Example 26, N-(4-Ethoxycarbonylphenyl)-(2-chloro-5-nitrophenyl)carboxamide] | 87.5
12 | CC(C)(C)c1cc(NC(=O)c2cc([N+](=O)[O-])ccc2Cl)cc(C(C)(C)C)c1O [Example 29, N-(3,5-Di-t-butyl-4-hydroxyphenyl)-(2-chloro-5-nitrophenyl)carboxamide] | 68.6
13 | O=C(Nc1cccc(NS(=O)(=O)c2ccccc2)c1)c1cc([N+](=O)[O-])ccc1Cl [Example 30, N-(3-Benzensulfonylaminophenyl)-(2-chloro-5-nitrophenyl)carboxamide] | 60.1
14 | O=C(Nc1nc(-c2ccccc2)cs1)c1cc([N+](=O)[O-])ccc1Cl [Example 35, N-(4-Phenylthiazol-2-yl)-(2-chloro-5-nitrophenyl)carboxamide] | 71.5
15 | O=C(Nc1nc(-c2cccnc2)cs1)c1cc([N+](=O)[O-])ccc1Cl [Example 37, N-[4-(3-Pyridyl)thiazol-2-yl)-(2-chloro-5-nitrophenyl)carboxamide] | 38.6
16 | O=C(Nc1nc(-c2ccccn2)cs1)c1cc([N+](=O)[O-])ccc1Cl [Example 38, N-[4-(2-Pyridyl)thiazol-2-yl)-(2-chloro-5-nitrophenyl)carboxamide] | 82
17 | Cc1ccccc1-c1csc(NC(=O)c2cc([N+](=O)[O-])ccc2Cl)n1 [Example 39, N-[4-(2-Methylphenyl)thiazol-2-yl]-(2-chloro-5-nitrophenyl)carboxamide] | 62.5
18 | Cc1cccc(-c2csc(NC(=O)c3cc([N+](=O)[O-])ccc3Cl)n2)c1 [Example 40, N-[4-(3-Methylphenyl)thiazol-2-yl)-(2-chloro-5-nitrophenyl)carboxamide] | 45.3
19 | O=C(Nc1nc(-c2cccc3ccccc23)cs1)c1cc([N+](=O)[O-])ccc1Cl [Example 41, N-[4-(1-Naphthyl)thiazol-2-yl]-(2-chloro-5-nitrophenyl)carboxamide] | 53.8
20 | CCc1ccc(-c2csc(NC(=O)c3cc([N+](=O)[O-])ccc3Cl)n2)cc1 [Example 44, N-[4-(4-Ethylphenyl)thiazol-2-yl]-(2-chloro-5-nitrophenyl)carboxamide] | 67.6
21 | Cc1ccc(-c2nc(NC(=O)c3cc([N+](=O)[O-])ccc3Cl)sc2C)cc1Cl [Example 46, N-[4-(3-Chloro-4-methylphenyl)-5-methylthiazol-2-yl]-(2-chloro-5-nitrophenyl)carboxamide] | 67
22 | Cc1nc(NC(=O)c2cc([N+](=O)[O-])ccc2Cl)sc1C [Example 47] | 63.1
23 | O=C(Nc1cccnc1)c1cc([N+](=O)[O-])ccc1Cl [Example 50, N-(3-Pyridyl)-(2-chloro-5-nitrophenyl)carboxamide] | 61.4

Row | Structure (SMILES) | activity at 0.1 µM [%]
24 | Cc1cccc(NC(=O)c2cc([N+](=O)[O-])ccc2Cl)n1 [Example 51, N-(6-Methylpyridin-2-yl)-(2-chloro-5-nitrophenyl)carboxamide] | 57.5
25 | Cc1ccc(NC(=O)c2cc([N+](=O)[O-])ccc2Cl)nc1 [Example 52, N-(5-Methylpyridin-2-yl)-(2-chloro-5-nitrophenyl)carboxamide] | 52.3
26 | O=C(Nc1ccc2c3c(cccc13)CC2)c1cc([N+](=O)[O-])ccc1Cl [Example 54, N-(Acenaphthen-5-yl)-(2-chloro-5-nitrophenyl)carboxamide] | 51.3
27 | O=C(Nc1cccc2cccnc12)c1cc([N+](=O)[O-])ccc1Cl [Example 57, N-(8-Quinolinyl)-(2-chloro-5-nitrophenyl)carboxamide] | 58.4
28 | Cc1ccnc(NC(=O)c2cc([N+](=O)[O-])ccc2Cl)n1 [Example 65, N-(4-Methylpyrimidin-2-yl)-(2-chloro-5-nitrophenyl)carboxamide] | 63.4
29 | COC(=O)c1sccc1NC(=O)c1cc([N+](=O)[O-])ccc1Cl [Example 66, N-(2-Methoxycarbonylthiophen-3-yl)-(2-chloro-5-nitrophenyl)carboxamide] | 70.7
30 | Cc1cc(Cl)nc(NC(=O)c2cc([N+](=O)[O-])ccc2Cl)n1 [Example 78, N-(4-Chloro-6-methylpyrimidin-2-yl)-(2-chloro-5-nitrophenyl)carboxamide] | 68.2
31 | Cn1c(NC(=O)c2cc([N+](=O)[O-])ccc2Cl)nc2ccccc21 [Example 82, N-(1-Methylbenzimidazol-2-yl)-(2-chloro-5-nitrophenyl)carboxamide] | 83
32 | O=C(Nc1nncs1)c1cc([N+](=O)[O-])ccc1Cl [Example 85, N-(1,3,4-Thiadiazol-2-yl)-(2-chloro-5-nitrophenyl)carboxamide] | 67.1
33 | O=C(Nc1cccc2nsnc12)c1cc([N+](=O)[O-])ccc1Cl [Example 86, N-(2,1,3-Benzothiazol-4-yl)-(2-chloro-5-nitrophenyl)carboxamide] | 51.7
34 | CC(C)(C)OC(=O)Nc1ccc(-c2ccc(NC(=O)c3cc([N+](=O)[O-])ccc3Cl)cc2)cc1 [Example 87, N-[4-[4-(tert-Butoxycarbonylamino)phenyl]phenyl]-(2-chloro-5-nitrophenyl)carboxamide] | 57.1
35 | O=C(Nc1ccc(S(=O)(=O)Nc2nccs2)cc1)c1cc([N+](=O)[O-])ccc1Cl [Example 96, N-[4-(Thiazol-2-yl)aminosulfonyl]phenyl-(2-chloro-5-nitrophenyl)carboxamide] | 98.7
36 | O=C(Nc1ccc(S(=O)(=O)Nc2ccc(Cl)nn2)cc1)c1cc([N+](=O)[O-])ccc1Cl [Example 102, N-[4-[(6-Chloropyridazin-3-yl)aminosulfonyl]phenyl]-(2-chloro-5-nitrophenyl)carboxamide] | 76.8
37 | COc1cnc(NS(=O)(=O)c2ccc(NC(=O)c3cc([N+](=O)[O-])ccc3Cl)cc2)nc1 [Example 105, N-[4-[(5-Methoxypyrimidin-2-yl)aminosulfonyl]phenyl]-(2-chloro-5-nitrophenyl)carboxamide] | 89.4
38 | N=C(N)NS(=O)(=O)c1ccc(NC(=O)c2cc([N+](=O)[O-])ccc2Cl)cc1 [Example 106, N-[4-(Amidinoaminosulfonyl)phenyl]-(2-chloro-5-nitrophenyl)carboxamide] | 82
39 | O=C(Nc1ccc(S(=O)(=O)Nc2ccnn2-c2ccccc2)cc1)c1cc([N+](=O)[O-])ccc1Cl [Example 108, N-[4-[(2-Phenyl-(2H)-pyrazol-3-yl)aminosulfonyl]phenyl]-(2-chloro-5-nitrophenyl)carboxamide] | 87.7
40 | O=C(Nc1nnc(-c2ccccc2)s1)c1cc([N+](=O)[O-])ccc1Cl [Example 110, N-(5-Phenyl-[1,3,4]thiadiazol-2-yl)-(2-chloro-5—nitrophenyl)carboxamide] | 84.6
41 | O=C(Nc1nc(-c2ccc(F)c(F)c2)cs1)c1cc([N+](=O)[O-])ccc1Cl [Example 111, N-[4-(3,4-Difluorophenyl)thiazol-2-yl]-(2-chloro-5-nitrophenyl)carboxamide] | 61.2
42 | Cc1ccc(S(=O)(=O)Nc2ccc(NC(=O)c3cc([N+](=O)[O-])ccc3Cl)cc2)cc1 [Example 116, N-[4-(4-Toluenesulfonylamino)phenyl]-(2-chloro-5-nitrophenyl)carboxamide] | 95.1
43 | CC(=O)Nc1ccc(NC(=O)c2cc([N+](=O)[O-])ccc2Cl)cc1 [Example 117, N-(4-Acetylaminophenyl)-(2-chloro-5-nitrophenyl)carboxamide] | 87
44 | O=C(Nc1ccc(NC(=O)c2cc([N+](=O)[O-])ccc2Cl)cc1)c1ccccc1 [Example 119, N-(4-Benzoylaminophenyl)-(2-chloro-5-nitrophenyl)carboxamide] | 65.7
